Source: ChEMBL document CHEMBL1201862, “PubChem BioAssay data set” (2004)
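Briefly, cells in 96-well plates were exposed to five compound concentrations for 48 h, and endpoints were estimated by linear interpolation. Abbreviation: GI50, concentration required for 50% inhibition of growth.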 Active and inactive are the calls of the source. No stated cut-off is given here; in the data, active = GI50 up to about 1.1 µM and inactive = higher.

Legend:
Assay in all cases: NCI anticancer screen, dose series, 48 h
786-0 = tested on: 786-0
A498 = tested on: A498
A549 = tested on: A549
ACHN = tested on: ACHN
CAKI-1 = tested on: CAKI-1
CCRF-CEM = tested on: CCRF-CEM
COLO 205 = tested on: COLO 205
DLD-1 = tested on: DLD-1
DMS-114 = tested on: DMS-114
DMS-273 = tested on: DMS-273
EKVX = tested on: EKVX
HCC 2998 = tested on: HCC 2998
HCT-116 = tested on: HCT-116
HCT-15 = tested on: HCT-15
HL-60 = tested on: HL-60
HOP-18 = tested on: HOP-18
HOP-62 = tested on: HOP-62
IGROV-1 = tested on: IGROV-1
K562 = tested on: K562
KM-20L2 = tested on: KM-20L2
KM12 = tested on: KM12
LXFL 529 = tested on: LXFL 529
M14 = tested on: M14
M19-MEL = tested on: M19-MEL
MOLT-4 = tested on: MOLT-4
Malme-3M = tested on: Malme-3M
NCI-H226 = tested on: NCI-H226
NCI-H460 = tested on: NCI-H460
NCI-H522 = tested on: NCI-H522
OVCAR-3 = tested on: OVCAR-3
OVCAR-4 = tested on: OVCAR-4
OVCAR-8 = tested on: OVCAR-8
RPMI-8226 = tested on: RPMI-8226
RXF 393 = tested on: RXF 393
RXF 631 = tested on: RXF 631
SF-268 = tested on: SF-268
SF-539 = tested on: SF-539
SK-MEL-28 = tested on: SK-MEL-28
SK-MEL-2 = tested on: SK-MEL-2
SK-MEL-5 = tested on: SK-MEL-5
SK-OV-3 = tested on: SK-OV-3
SN12C = tested on: SN12C
SNB-19 = tested on: SNB-19
SNB-75 = tested on: SNB-75
SNB-78 = tested on: SNB-78
SR = tested on: SR
SW-620 = tested on: SW-620
TK-10 = tested on: TK-10
U-251 = tested on: U-251
UACC-257 = tested on: UACC-257
UACC-62 = tested on: UACC-62
UO-31 = tested on: UO-31
HT-29 = tested on: HT-29
LOX IMVI = tested on: LOX IMVI
NCI-H23 = tested on: NCI-H23
OVCAR-5 = tested on: OVCAR-5
SF-295 = tested on: SF-295
XF498 = tested on: XF498

`COC(=O)C1CCc2nnc(-c3cccnc3)n21` (centres undefined) was tested, and the GI50 (786-0) was > 100 µM (inactive), the GI50 (A498) was > 100 µM (inactive) and the GI50 (A549) was > 100 µM (inactive). The GI50 (ACHN) was > 100 µM (inactive), the GI50 (CAKI-1) was > 100 µM (inactive) and the GI50 (CCRF-CEM) was > 100 µM (inactive). For the same molecule, the GI50 (COLO 205) was > 100 µM (inactive), the GI50 (DLD-1) was > 100 µM (inactive) and the GI50 (DMS-114) was > 100 µM (inactive). For the same molecule, the GI50 (DMS-273) was > 100 µM (inactive), the GI50 (EKVX) was > 100 µM (inactive) and the GI50 (HCC 2998) was > 100 µM (inactive). For the same molecule, the GI50 (HCT-116) was > 100 µM (inactive), the GI50 (HCT-15) was > 100 µM and the GI50 (HL-60) was > 100 µM (inactive). For the same molecule, the GI50 (HOP-18) was > 100 µM (inactive), the GI50 (HOP-62) was > 100 µM (inactive) and the GI50 (IGROV-1) was > 100 µM (inactive). The GI50 (K562) was > 100 µM (inactive), the GI50 (KM-20L2) was > 100 µM (inactive) and the GI50 (KM12) was > 100 µM (inactive). The GI50 (LXFL 529) was > 100 µM (inactive), the GI50 (M14) was > 100 µM (inactive) and the GI50 (M19-MEL) was > 100 µM (inactive). The GI50 (MOLT-4) was > 100 µM (inactive), the GI50 (Malme-3M) was > 100 µM (inactive) and the GI50 (NCI-H226) was > 100 µM (inactive). The GI50 (NCI-H460) was > 100 µM (inactive), the GI50 (NCI-H522) was > 100 µM (inactive) and the GI50 (OVCAR-3) was > 100 µM (inactive). The GI50 (OVCAR-4) was > 100 µM (inactive), the GI50 (OVCAR-8) was > 100 µM (inactive) and the GI50 (RPMI-8226) was > 100 µM (inactive). The GI50 (RXF 393) was > 100 µM (inactive), the GI50 (RXF 631) was > 100 µM (inactive) and the GI50 (SF-268) was > 100 µM (inactive). The GI50 (SF-539) was > 100 µM (inactive), the GI50 (SK-MEL-28) was > 100 µM (inactive) and the GI50 (SK-MEL-2) was > 100 µM (inactive). The GI50 (SK-MEL-5) was > 100 µM (inactive), the GI50 (SK-OV-3) was > 100 µM (inactive) and the GI50 (SN12C) was > 100 µM (inactive). For the same molecule, the GI50 (SNB-19) was > 100 µM (inactive), the GI50 (SNB-75) was > 100 µM (inactive) and the GI50 (SNB-78) was > 100 µM (inactive). The GI50 (SR) was > 100 µM (inactive), the GI50 (SW-620) was > 100 µM (inactive) and the GI50 (TK-10) was > 100 µM (inactive). The GI50 (U-251) was > 100 µM (inactive), the GI50 (UACC-257) was > 100 µM (inactive) and the GI50 (UACC-62) was > 100 µM (inactive). For the same molecule, the GI50 (UO-31) was > 100 µM (inactive).

In the case of `CC(=O)NNc1nc(C)c(C(=O)/C=C/c2ccc(/C=C/C(=O)c3sc(NNC(C)=O)nc3C)cc2)s1`, the GI50 (786-0) is reported as > 100 µM (inactive), the GI50 (A549) is reported as > 100 µM (inactive) and the GI50 (ACHN) is reported as > 100 µM (inactive). For the same molecule, the GI50 (CAKI-1) was > 100 µM (inactive), the GI50 (CCRF-CEM) was > 100 µM (inactive) and the GI50 (COLO 205) was > 100 µM (inactive). The GI50 (DLD-1) was > 100 µM (inactive), the GI50 (DMS-114) was > 100 µM (inactive) and the GI50 (DMS-273) was > 100 µM (inactive). For the same molecule, the GI50 (EKVX) was 57.3 µM (inactive), the GI50 (HCC 2998) was > 100 µM (inactive) and the GI50 (HCT-116) was > 100 µM (inactive). The GI50 (HCT-15) was > 100 µM, the GI50 (HL-60) was > 100 µM (inactive) and the GI50 (HOP-62) was > 100 µM (inactive). The GI50 (HT-29) was > 100 µM (inactive), the GI50 (IGROV-1) was > 100 µM (inactive) and the GI50 (K562) was > 100 µM (inactive). For the same molecule, the GI50 (KM12) was > 100 µM (inactive), the GI50 (LOX IMVI) was > 100 µM (inactive) and the GI50 (LXFL 529) was > 100 µM (inactive). The GI50 (M14) was 43.2 µM (inactive), the GI50 (M19-MEL) was > 100 µM (inactive) and the GI50 (MOLT-4) was > 100 µM (inactive). For the same molecule, the GI50 (Malme-3M) was > 100 µM (inactive), the GI50 (NCI-H226) was > 100 µM (inactive) and the GI50 (NCI-H23) was > 100 µM (inactive). For the same molecule, the GI50 (NCI-H460) was > 100 µM (inactive), the GI50 (NCI-H522) was > 100 µM (inactive) and the GI50 (OVCAR-3) was > 100 µM (inactive). For the same molecule, the GI50 (OVCAR-4) was > 100 µM (inactive), the GI50 (OVCAR-5) was > 100 µM (inactive) and the GI50 (OVCAR-8) was > 100 µM (inactive). The GI50 (RXF 393) was > 100 µM (inactive), the GI50 (RXF 631) was > 100 µM (inactive) and the GI50 (SF-268) was > 100 µM (inactive). The GI50 (SF-295) was > 100 µM (inactive), the GI50 (SF-539) was > 100 µM (inactive) and the GI50 (SK-MEL-28) was > 100 µM (inactive). The GI50 (SK-MEL-2) was > 100 µM (inactive), the GI50 (SK-OV-3) was > 100 µM (inactive) and the GI50 (SN12C) was > 100 µM (inactive). For the same molecule, the GI50 (SNB-19) was > 100 µM (inactive), the GI50 (SNB-78) was > 100 µM (inactive) and the GI50 (SR) was > 100 µM (inactive). The GI50 (SW-620) was > 100 µM (inactive), the GI50 (TK-10) was > 100 µM (inactive) and the GI50 (U-251) was > 100 µM (inactive). For the same molecule, the GI50 (UACC-257) was > 100 µM (inactive), the GI50 (UACC-62) was > 100 µM (inactive) and the GI50 (UO-31) was > 100 µM (inactive). For the same molecule, the GI50 (XF498) was > 100 µM (inactive).
